PMC9053583, “A novel series of phenolic temozolomide (TMZ) esters with 4 to 5-fold increased potency, compared to TMZ, against glioma cells irrespective of MGMT expression” (RSC Advances, 2020)
Read-outs that look alike come from different tables or passages of the source.

What was measured:
GOS-3 = experiment: CellTiter-Glo cytotoxicity against GOS-3 cells; format: cell-based; settings: Homo sapiens; 144 hours incubation, IC50 ± SD (n = 3)
Experimental: (§1) Apoptosis of glioma cells induced by TMZ, occurs at least 120 hours after treatment.[7] Consequently, cells were incubated for 144 hours with specified TMZ analogues in the in vitro investigations in order to obtain more reliable IC50 values.
(§2) 1321-N1 (human astrocytoma) was maintained in DMEM medium supplemented with 2 mM L-glutamine and 10% FBS. GOS-3, (human brain mixed astro-oligodendroglioma) was maintained in DMEM medium supplemented with 2 mM L-glutamine and 10% […]. U87-MG, (human glioblastoma) and SVGp12 (normal human astroglia) were maintained in EMEM medium supplemented with 2 mM L-glutamine, 1 mM sodium pyruvate and 10% FBS. All cell lines were incubated at 37 °C and 5% CO2 in a humidified incubator. Primary BTNW cultures were maintained in Ham's F10 nutrient mixture, containing 20 mM HEPES, 2 mM glutamine and 10% FBS. Primary cultures were incubated in a humidified incubator at 37 °C.
(§3) Cells were seeded in the appropriate media in each well of a Costar 96-well plate at a density of 5 × 10^2 immortalised cells; 2 × 10^3 (primary cells). The plates were incubated at 37 °C and 5% CO2 in a humidified incubator for 24 hours to allow cells to adhere. Each of the drugs tested were dissolved in DMSO to afford a 200 mM stock solution. The stock solutions were diluted with medium to afford the final working concentrations, ensuring DMSO concentration was no greater than 0.5% (v/v). Drug concentrations were added to the cells and incubated for 144 hours. After incubation, the drug concentrations were removed and replaced with 100 μL of CellTiter-Glo® and 100 μL of media. The luminescence of each well was measured on GENios Pro plate reader. The results for each of the drug concentrations were expressed as a percentage of the control wells. For cell lines, the regression equation for a polynomial line of best fit of order 2 was used to calculate the IC50. In the case of the in vitro model used in the present study, the IC50 was defined as the concentration of drug that results in a 50% reduction in oxyluciferin production. Primary culture cells were incubated with clinically relevant concentrations for 144 hours. Viability was expressed as a percentage of the control wells. Each experiment involving cell lines was carried out in triplicate of triplicates. Experiments using patient derived primary cultures were carried out in triplicate.
(§4) Initial screening of the 25 analogues was completed using the U87-MG cell line. The most promising analogues from the initial screening were taken forward and tested against the 1321-N1, GOS-3 and SVG-p12 cell lines. The results of all 4 cell lines were compiled and the analogues that were deemed to be the most promising drug candidates were tested against primary cultures at clinically relevant concentrations.

BTNW914 (MGMT−) = experiment: Cell viability of patient derived primary GBM culture BTNW914 (MGMT−); format: cell-based, human; settings: 6 days incubation
Experimental: (§5) Fig. 2 (A) Cell viability of BTNW914 (MGMT−) after treatment by TMZ and phenyl TMZ ester analogues at various clinically relevant concentrations and incubation for 6 days. (B) Cell Viability of BTNW374 (MGMT+) after treatment by TMZ and phenyl TMZ ester analogues at various clinically relevant concentrations. Values are reported as the percentage of viable cells ± SD, n = 3.
(§6) Cytotoxic evaluation of the analogues was completed against 4 cell lines and 2 primary GBM cultures. The human glioma cell lines, GOS-3, U87-MG and 1321-N1 along with the human astroglial cell line, SVGp12, were purchased from The European Collection of Cell Cultures (ECCAC, UK) and Deutsche Sammlung von Mikroorganismen und Zellkulturen (DMSZ, Germany). Patient derived primary GBM cultures, BTNW374 and BTNW914, were obtained from The Brain Tumour North West Tissue Bank in collaboration with The Royal Preston Hospital. Patient data for primary cells was included as part of the ESI. ^†
as §2, §3

BTNW374 (MGMT+) = experiment: Cell viability of patient derived primary GBM culture BTNW374 (MGMT+); format: cell-based, human; settings: human, 144 h, 75 μM
Experimental: as §5, §6, §2, §3

1321-N1 = experiment: CellTiter-Glo cytotoxicity against 1321-N1 cells; format: cell-based; settings: Homo sapiens, 144 hours incubation, IC50 ± SD (n = 3)
Experimental: as §1, §2, §3, §4

U87-MG cells = experiment: CellTiter-Glo cytotoxicity against U87-MG cells; format: cell-based; settings: Homo sapiens, U-87 MG, 144 hours incubation, IC50 ± SD (n = 3)
Experimental: as §1, §2, §3, §4

SVGp12 = experiment: CellTiter-Glo cytotoxicity against normal SVGp12 cell line; format: cell-based; settings: Homo sapiens, 144 hours incubation, IC50 ± SD (n = 3)
Experimental: as §1, §2, §3, §4

[1] = Solubility in cell culture medium; format: physicochemical
Experimental: The maximum concentration that could be achieved in medium for amide analogues 4a and 4c was approximately 200 μM, at which IC50 values could not be generated and were also eliminated from further studies.
as §3

[2] = initial screening, CellTiter-Glo, read-out: IC50 against U87-MG cells
[3] = lead analogues (Table 2), read-out: IC50 U87-MG

| melting point [°C] | solubility in cell culture medium [1] | SMILES | IC50 (U87-MG cells; [2]) [µM] | further results |
| --- | --- | --- | --- | --- |
| 164 | – | Cn1nnc2c(C(=O)Oc3ccc(Cl)cc3)ncn2c1=O [Analogue 3j, 4-Chlorophenyl 3-methyl-4-oxo-3,4-dihydroimidazo [5,1-d][1,2,3,5] tetrazine-8-carboxylate] | 96 ± 3 | IC50 (GOS-3): 54 ± 4 µM; IC50 (BTNW914 (MGMT−); Homo sapiens, 144 h, read-out: IC50 against MGMT devoid GBM primary cells): < 15 µM; cytotoxicity against MGMT positive patient derived primary culture (BTNW374 (MGMT+)): generated cytotoxicity at 75 μM; IC50 (1321-N1): 118 ± 11 µM; IC50 (U87-MG cells; [3]): 96 ± 3 µM; IC50 (SVGp12): 33 ± 1 µM |
| 148 | insoluble | Cn1nnc2c(C(=O)NCc3ccc(Cl)cc3)ncn2c1=O [Analogue 4k, N-(4-Chlorobenzyl)-3-methyl-4-oxo-3,4-dihydroimidazo[5,1-d][1,2,3,5]tetrazine-8-carboxamide] | – | IC50 (GOS-3): > 200 µM; IC50 (1321-N1): > 200 µM; IC50 (U87-MG cells; [3]): 138 ± 28 µM; IC50 (SVGp12): 79 ± 6 µM |
| 209 | insoluble | Cc1ccc(NC(=O)c2ncn3c(=O)n(C)nnc23)cc1 [Analogue 4g, 3-Methyl-4-oxo-N-(p-tolyl)-3,4-dihydroimidazo[5,1-d][1,2,3,5]tetrazine-8-carboxamide] | – | – |
| 138 | insoluble | CCCCCCNC(=O)c1ncn2c(=O)n(C)nnc12 [Analogue 4a, N-Hexyl-3-methyl-4-oxo-3,4-dihydroimidazo[5,1-d][1,2,3,5]tetrazine-8-carboxamide] | > 200 | maximum concentration that could be achieved in medium [1]: approximately 200 μM |
| 234 | insoluble | Cn1nnc2c(C(=O)Nc3ccc(C#N)cc3)ncn2c1=O [Analogue 4f, N-(4-Cyanophenyl)-3-methyl-4-oxo-3,4-dihydroimidazo[5,1-d][1,2,3,5]tetrazine-8-carboxamide] | – | – |
| 187 | insoluble | Cn1nnc2c(C(=O)OCCc3ccc([N+](=O)[O-])cc3)ncn2c1=O [Analogue 3d, 4-Nitrophenethyl 3-methyl-4-oxo-3,4-dihydroimidazo[5,1-d][1,2,3,5]tetrazine-8-carboxylate] | – | – |
| 189 | insoluble | Cn1nnc2c(C(=O)Nc3ccccc3)ncn2c1=O [Analogue 4c, 3-Methyl-4-oxo-N-phenyl-3,4-dihydroimidazo[5,1-d][1,2,3,5]tetrazine-8-carboxamide] | > 200 | maximum concentration that could be achieved in medium [1]: approximately 200 μM |
| 204 | – | CN(C)CCCOC(=O)c1ncn2c(=O)n(C)nnc12 [Analogue 3g, 3-(Dimethylamino)propyl 3-methyl-4-oxo-3,4-dihydroimidazo[5,1-d][1,2,3,5]tetrazine-8-carboxylate] | 856 ± 20 | – |
| 165 | – | COc1ccccc1OC(=O)c1ncn2c(=O)n(C)nnc12 [Analogue 3m, 2-Methoxyphenyl 3-methyl-4-oxo-3,4-dihydroimidazo[5,1-d][1,2,3,5]tetrazine-8-carboxylate] | 576 ± 91 | – |
| 192 | insoluble | COc1ccc(NC(=O)c2ncn3c(=O)n(C)nnc23)cc1 [Analogue 4d, N-(4-Methoxyphenyl)-3-methyl-4-oxo-3,4-dihydroimidazo[5,1-d][1,2,3,5]tetrazine-8-carboxamide] | – | – |
| 130 | – | CCOC(=O)c1ncn2c(=O)n(C)nnc12 [Analogue 3a, Ethyl 3-methyl-4-oxo-3,4-dihydroimidazo[5,1-d][1,2,3,5]tetrazine-8-carboxylate] | 700 ± 109 | – |
| 200 | insoluble | Cn1nnc2c(C(=O)Nc3ccc(Cl)cc3)ncn2c1=O [Analogue 4e, N-(4-Chlorophenyl)-3-methyl-4-oxo-3,4-dihydroimidazo[5,1-d][1,2,3,5]tetrazine-8-carboxamide] | – | – |
| 152 | – | Cc1ccc(CNC(=O)c2ncn3c(=O)n(C)nnc23)cc1 [Analogue 4j, 3-Methyl-N-(4-methylbenzyl)-4-oxo-3,4-dihydroimidazo[5,1-d][1,2,3,5]tetrazine-8-carboxamide] | 139 ± 28 | – |
| 149 | – | Cn1nnc2c(C(=O)Oc3ccccc3)ncn2c1=O [Analogue 3l, Phenyl 3-methyl-4-oxo-3,4-dihydroimidazo[5,1-d][1,2,3,5]tetrazine-8-carboxylate] | 331 ± 47 | IC50 (GOS-3): 691 ± 35 µM; reduction in viability against MGMT devoid GBM cells (BTNW914 (MGMT−); at 75 μM): greater than 50%; IC50 (1321-N1): 511 ± 10 µM; IC50 (U87-MG cells; [3]): 330 ± 47 µM; IC50 (SVGp12): 238 ± 6 µM |
| 76 | – | CCCCCCOC(=O)c1ncn2c(=O)n(C)nnc12 [Analogue 3b, Hexyl 3-methyl-4-oxo-3,4-dihydroimidazo[5,1-d][1,2,3,5]tetrazine-8-carboxylate] | 409 ± 45 | IC50 (GOS-3): 269 ± 6 µM; IC50 (1321-N1): 269 ± 20 µM; IC50 (U87-MG cells; [3]): 409 ± 45 µM; IC50 (SVGp12): 182 ± 11 µM |
| 193 | insoluble | COc1ccc(CNC(=O)c2ncn3c(=O)n(C)nnc23)cc1 [Analogue 4i, N-(4-Methoxybenzyl)-3-methyl-4-oxo-3,4-dihydroimidazo[5,1-d][1,2,3,5]tetrazine-8-carboxamide] | – | – |
| 124 | – | Cn1nnc2c(C(=O)OCCc3ccccc3)ncn2c1=O [Analogue 3c, Phenethyl 3-methyl-4-oxo-3,4-dihydroimidazo[5,1-d][1,2,3,5]tetrazine-8-carboxylate] | 615 ± 96 | – |
| 158 | – | Cn1nnc2c(C(=O)NCCc3ccccc3)ncn2c1=O [Analogue 4b, 3-Methyl-4-oxo-N-phenethyl-3,4-dihydroimidazo[5,1-d] [1,2,3,5]tetrazine-8-carboxamide] | 548 ± 48 | – |
| – | – | Cn1nnc2c(C(=O)O)ncn2c1=O [TMZ acid, 3-methyl-4-oxo-3,4-dihydroimidazo[5,1-d][1,2,3,5]tetrazine-8-carboxylic acid] | 662 ± 42 | IC50 (GOS-3): 504 ± 30 µM; IC50 (1321-N1): 596 ± 26 µM; IC50 (U87-MG cells; [3]): 662 ± 42 µM; IC50 (SVGp12): 316 ± 2 µM |
| 164 | insoluble | COc1ccc(CCOC(=O)c2ncn3c(=O)n(C)nnc23)cc1 [Analogue 3e, 4-Methoxyphenethyl 3-methyl-4-oxo-3,4-dihydroimidazo[5,1-d][1,2,3,5]tetrazine-8-carboxylate] | – | – |
| 170 | insoluble | COc1ccc(COC(=O)c2ncn3c(=O)n(C)nnc23)cc1 [Analogue 3f, 4-Methoxybenzyl 3-methyl-4-oxo-3,4-dihydroimidazo[5,1-d][1,2,3,5]tetrazine-8-carboxylate] | – | – |
| 193 | insoluble | COc1ccccc1NC(=O)c1ncn2c(=O)n(C)nnc12 [Analogue 4h, N-(2-Methoxyphenyl)-3-methyl-4-oxo-3,4-dihydroimidazo[5,1-d][1,2,3,5]tetrazine-8-carboxamide] | – | – |
